# Test results: US12419879B2, “Combination therapy for the treatment of pancreatic cancer” (Genentech, Inc., priority 2016, dated 2025)
# Experiments:
# [1] = tested on: KP4 cells; assay: Small molecule inhibitor screen of KP4 cells in 2D monolayer and 3D spheroid cultures; assay type: cell-based, human; details: 2D monolayer vs 3D spheroid
# Experimental: Cell viability assays were performed by treating cells with a dose titration (0.001 to 10 μM) or fixed dose (1 μM) of the various pharmacologic inhibitors for 72 hrs and measuring viability using CellTiter Glo (Promega). Bliss scores were calculated as described previously. (Borisy A A, Elliott P J, Hurst N W, Lee M S, Lehar J, Price E R, Systematic discovery of multicomponent therapeutics, Proceedings of the National Academy of Sciences of the United States of America, 2003; 100(13):7977-82, Epub 2003/06/12).
# To compare how pancreatic cancer cells cultured in 2-dimensional (2D) and 3-dimensional (3D) cultures respond to various cancer therapeutic agents, we treated the KAS mutant PDAC cancer cell line KP4 with a panel of 203 small molecule inhibitors of cancer-relevant targets and known chemotherapeutics (Table 1).
# For 3D cultures, described herein is a method to facilitate a relatively rapid “high-throughput” analysis. […] Their drug sensitivity pattern was also similar to previously described spheroids (FIGS. 28 & 29).
# [2] = tested on: PDAC cell lines; assay: Cell viability assay (CellTiter Glo) with Bliss analysis in PDAC cell lines, 2D and 3D; assay type: cell-based, human
# Experimental: Cell viability assays were performed by treating cells with a dose titration (0.001 to 10 μM) or fixed dose (1 μM) of the various pharmacologic inhibitors for 72 hrs and measuring viability using CellTiter Glo (Promega). Bliss scores were calculated as described previously.
# [3] = tested on: KPP xenografts; assay type: in vivo; details: cobimetinib 5 mg/kg and/or ponatinib 30 mg/kg, PO, QD; for Tumor volume (last day): in mm³ (unit assumed)
# Experimental: (§1) All animal studies were carried out in compliance with National Institutes of Health Guide for the Care and Use of Laboratory Animals. […] Two xenograft models were used: the human PDAC-derived cell line KP4 and cells derived from tumors isolated from KPP GEMM mice. 5×10^6 cells were subcutaneously implanted into the right flanks of immune-deficient mice (Charles River Laboratories) without using any Matrigel. […] Tumor volumes were measured using Ultra-Cal IV calipers at the indicated intervals. To appropriately analyze the repeated measurement of tumor volumes from the same animals over time, a mixed modeling approach was used. (Jose Pinheiro D B, Saikat DebRoy, Deepayan Sarkar, R Core team. Linear and Nonlinear mixed effects models. Package ‘nlme’2008). This approach addresses both repeated measurements and modest dropouts due to any non-treatment-related deaths of animals before the study end. Cubic regression splines were used to fit a non-linear profile to time courses of log2 tumor volume at each dose level. These non-linear profiles were then related to the dose within the mixed model.
# (§2) To determine the uncertainty intervals (UIs) for % TGI, the fitted curve and the fitted covariance matrix were used to generate a random sample as an approximation to the distribution of % TGI. […] The reported UIs were the values for which 95% of the time the recalculated values of % TGI would fall in this region given the fitted model. The 2.5 and 97.5 percentiles of the simulated distribution were used as the upper and lower UIs. Tumor growth inhibition >60% was considered meaningful. (Wong H, Choo E F, Alicke B, Ding X, La H, McNamara E, Antitumor activity of targeted and cytotoxic agents in murine subcutaneous tumor models correlates with clinical response, Clinical Cancer Research: an official journal of the American Association for Cancer Research, 2012; 18(14):3846-55. Epub 2012/06/01).
# (§3) Plotting was performed and generated using R, version 2.8.1 (R Development Core Team 2008; R Foundation for Statistical Computing; Vienna, Austria) and Excel, version 12.0.1 (Microsoft Corporation). Data were analyzed using R, version 2.8.1, and the mixed models were fit within R using the nlme package, version 3.1-89 (41).
# [4] = tested on: KP4 xenografts; assay type: in vivo
# Experimental: as §1, §2, §3
# [5] = tested on: serum growth factors and cytokines; assay: Luminex assay / ELISA of plasma samples of KP4 xenograft mice; assay type: in vivo
# [6] = tested on: xenograft tumors; assay: Histopathology, IHC/IF staining and immunoblotting of grafted tumors; assay type: in vivo, mice
# Experimental: Cells were seeded in 10 cm dishes and treated with 1 μM of small molecule inhibitors for 24 hrs. Cell lysates were prepared in RIPA lysis buffer (Thermo Scientific) containing a protease inhibitor cocktail (Thermo Scientific), SDS-PAGE was performed and proteins were transferred to nitrocellulose membranes. Immunoblotting was performed using standard methods. Protein bands were quantified using ImageJ software. Primary antibodies: p-Erk, p-STAT3, p-S6, total-S6, p-PDGFRα, p-PDGFRβ, p-RSK3, cleaved PARP, Bcl-xL, Mcl, survivin, Rab11, p-Akt, β-Actin, GAPDH (Cell Signaling), total-STAT3, total-PDGFRα (Santa Cruz Biotechnology), p-EphA7 (Gene Tex) and p-EphA2/3, EphA2/5 (MyBioscource). Immunohistochemistry and immunofluorescence were performed on 4 μm thick sections cut from formalin-fixed paraffin-embedded cell pellets, whole tissue sections, and TMA blocks (US Biomax, Inc.). Slides were deparaffinized and antigen unmasking was performed on PT Module (Thermo Scientific) with Target Retrieval Solution (Dako). […] Antibody binding was detected using Vecstatin ABC Elite horseradish peroxidase (Vector Laboratories) or PowerVision Poly-HRP (Leica Biosystems) and metal-enhanced 3, 3′-diaminobenzidine (Pierce) for IHC stainings and PowerVision Poly-HRP (Leica Biosystems) along with TSA kits (Life Technologies) for immunofluorescence staining. […]
# [7] = tested on: PDGFRα, S6 and STAT3 activation; assay: Western blot of signaling proteins in PDAC cells (2D and 3D); assay type: cell-based, human; details: KP4 cells
# Experimental: Cells were seeded in 10 cm dishes and treated with 1 μM of small molecule inhibitors for 24 hrs. Cell lysates were prepared in RIPA lysis buffer (Thermo Scientific) containing a protease inhibitor cocktail (Thermo Scientific), SDS-PAGE was performed and proteins were transferred to nitrocellulose membranes. Immunoblotting was performed using standard methods. Protein bands were quantified using ImageJ software. Primary antibodies: p-Erk, p-STAT3, p-S6, total-S6, p-PDGFRα, p-PDGFRβ, p-RSK3, cleaved PARP, Bcl-xL, Mcl, survivin, Rab11, p-Akt, β-Actin, GAPDH (Cell Signaling), total-STAT3, total-PDGFRα (Santa Cruz Biotechnology), p-EphA7 (Gene Tex) and p-EphA2/3, EphA2/5 (MyBioscource).
# [8] = tested on: IL-6 secretion; assay: IL-6 secretion in 2D culture supernatants of PDAC cell lines; assay type: cell-based, human; details: multiple PDAC cell lines, 24 hrs
# [9] = cobimetinib 5 mg/kg and/or ponatinib 30 mg/kg, PO, QD
smiles,measurement,setting,value
CS(=O)(=O)N1CCN(Cc2cc3nc(-c4cccc5[nH]ncc45)nc(N4CCOCC4)c3s2)CC1 [GDC-0941],differential sensitivity of 3D versus 2D cultures,[1],more effective on 3D cultures than the 2D cultures
Cc1ccc(C(=O)Nc2ccc(CN3CCN(C)CC3)c(C(F)(F)F)c2)cc1C#Cc1cnc2cccnn12 [Ponatinib],effect on cell viability as single agents,[2],no effect on cell viability
same,"TTP 2X (Time to Tumor Progression, 2X original volume)",[3],7
same,Tumor volume (last day),[3],1045
same,effect on tumor growth (in words),[4],ineffective as single agents
same,"TTP 2X (Time to Tumor Progression, 2X original volume)",[4]; [9],8.5
same,Tumor volume (last day),[4]; [9],408 mm³
Cn1cnc2c(F)c(Nc3ccc(Br)cc3Cl)c(C(=O)NOCCO)cc21 [AZD6244],differential sensitivity of 3D versus 2D cultures,[1],more effective on 3D cultures than the 2D cultures
O=C(NOC[C@H](O)CO)c1ccc(F)c(F)c1Nc1ccc(I)cc1F [PD901],differential sensitivity of 3D versus 2D cultures,[1],more effective on 3D cultures than the 2D cultures
Cc1c(CN2CCN(C(=O)[C@H](C)O)CC2)sc2c(N3CCOCC3)nc(-c3cnc(N)nc3)nc12 [GDC-0980],differential sensitivity of 3D versus 2D cultures,[1],more effective on 3D cultures than the 2D cultures
O=C(NOCCO)c1ccc2cncn2c1Nc1ccc(I)cc1F [GDC-0623],differential sensitivity of 3D versus 2D cultures,[1],more effective on 3D cultures than the 2D cultures
O=C(c1ccc(F)c(F)c1Nc1ccc(I)cc1F)N1CC(O)([C@@H]2CCCCN2)C1 [Cobimetinib],differential sensitivity of 3D versus 2D cultures,[1],more effective on 3D cultures than the 2D cultures
same,serum growth factor and cytokine levels,[5],"Significantly elevated serum levels of PDGFα, PDGFβ, and increased levels of IL-6"
same,"p-PDGFRα, p-STAT3 and pS6 in grafted tumors",[6],induction
same,"activation of p-PDGFRα, p-STAT3 and p-S6 (western blot)",[7],increased level of activation
same,effect on cell viability as single agents,[2],no effect on cell viability
same,% TGI (AUC vs. Vehicle),[3],31%
same,"TTP 2X (Time to Tumor Progression, 2X original volume)",[3],6.5
same,Tumor volume (last day),[3],917
same,effect on tumor growth (in words),[4],ineffective as single agents
same,% TGI (AUC vs. Vehicle),[4]; [9],70%
same,"TTP 2X (Time to Tumor Progression, 2X original volume)",[4]; [9],13
same,Tumor volume (last day),[4]; [9],532 mm³
same,secretion of IL-6,[8],increased secretion of the IL-6 ligand
